Each structure is given as a SMILES string.

As usually defined, the EC50 is the midpoint of the concentration-response curve.

Holding throughout (type): binding
One assay has as its target T1, OR35a (Drosophila melanogaster, UniProt Q9V3Q2).
T1 sequence (Q9V3Q2 1-409): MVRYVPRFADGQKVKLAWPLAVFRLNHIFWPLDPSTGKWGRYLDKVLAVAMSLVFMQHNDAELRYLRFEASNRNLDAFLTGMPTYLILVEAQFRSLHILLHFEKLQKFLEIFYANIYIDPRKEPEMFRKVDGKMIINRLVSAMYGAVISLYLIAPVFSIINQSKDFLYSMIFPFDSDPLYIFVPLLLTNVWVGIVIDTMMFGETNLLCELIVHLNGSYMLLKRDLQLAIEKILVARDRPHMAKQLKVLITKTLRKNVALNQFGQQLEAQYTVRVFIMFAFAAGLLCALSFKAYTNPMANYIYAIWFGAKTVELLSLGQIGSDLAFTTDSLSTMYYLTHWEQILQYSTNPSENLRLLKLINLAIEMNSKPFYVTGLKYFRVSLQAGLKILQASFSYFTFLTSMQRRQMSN
Nature of the assay: CNT-FET sensor, OR35a nanodiscs via his-tag/Ni-NTA (Example 2). Conditions: for real time source-drain current response: OR35a nanodiscs 1:10, E-2-hexenal at 64 pM, methyl hexanoate 70 nM to 500 μM.

Assay [1] has as its target T2, Or10a (Drosophila melanogaster, UniProt Q9VYZ1).
T2 sequence (Q9VYZ1 1-406): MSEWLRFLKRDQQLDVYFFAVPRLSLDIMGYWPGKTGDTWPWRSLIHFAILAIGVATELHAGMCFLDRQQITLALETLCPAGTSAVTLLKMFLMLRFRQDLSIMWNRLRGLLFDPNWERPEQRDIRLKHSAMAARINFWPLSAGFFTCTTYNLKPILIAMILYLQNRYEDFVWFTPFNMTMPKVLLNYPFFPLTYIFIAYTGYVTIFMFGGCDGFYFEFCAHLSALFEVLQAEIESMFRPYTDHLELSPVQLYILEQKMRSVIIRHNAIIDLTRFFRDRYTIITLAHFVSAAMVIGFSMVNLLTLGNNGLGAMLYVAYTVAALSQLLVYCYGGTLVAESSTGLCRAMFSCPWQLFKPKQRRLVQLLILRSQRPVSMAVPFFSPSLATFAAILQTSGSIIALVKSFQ
Nature of the assay: CNT-FET sensor covalently functionalized with OR10a nanodiscs (Example 3). Particulars: for current response: increasing additions of ligand. Here is the method:
The dispersion was sonicated until a clear solution was obtained. The temperature was kept at 25° C. throughout the sonication process. The thiolpyridine solution was prepared by dissolving 10 mg of 2-Mercaptopyridine (99%, Sigma Aldrich) in 1 ml of methanol. The solution was spun coated on a polydimethylsiloxane (PDMS) surface at 2000 rpm for one minute. Before the spin coating process, the PDMS surface was cleaned by a 50 W Oxygen plasma for 1 minute to improve the wettability. The cleaned substrates were placed upside down on the PDMS surface for three minutes and washed in ethanol to remove the excess thiolpyridine molecules. Then the substrates were transferred into the CNT suspension and immersed into the suspension for 10 minutes. The samples were removed from the suspension and dipped into Ethanol for another 10 minutes to remove the thiolpyridine molecules in the SWNT network. The alignment markers were deposited by defining the markers by photolithography and thermal evaporation of 5 nm Chromium and 50 nm of Gold. The metal Lift off was done by acetone immersion for 15 minutes followed by an Isopropyl alcohol (IPA) wash and N2 blow dry. The result is a uniform thin film CNT network covering the entire substrate surface. The purification procedure is a variation on the one detailed in […] et al. 2013^14. […] The cell pellet was collected by centrifugation at 3800 g for 10 min at room temperature and then resuspended in 40 mL of resuspension buffer A (20 mM Tris/HCl pH 7.5, 100 mM NaCl, 1× protease inhibitor cocktail (Roche Diagnostics GmbH, Germany)), with 25 U/mL Benzonase, then lysed by two passes on an Emulsiflex C5 emulsifier (Avestin, Germany) at 10,000-15,000 psi. The sample was then centrifuged at 1000 g for 5 min to remove whole cells and nuclei. The supernatant was removed and spun at 100,000 g for 1 h at 4° C. The membrane pellet was resuspended in 40 mL of buffer A with 1% w/v detergent (Zwittergent 3-16) and rotated for 1 h at room temperature at 10 rpm. The sample was then centrifuged at 100,000 g for 1 h at 18° C. The supernatant was removed and loaded onto a 1 mL NiNTA column (GE Healthcare) where the zwittergent 3-16 detergent was exchanged to Fos-Choline 14 (FC-14). The column was washed in ten column volumes of buffer B (20 mM Tris/HCl pH 7.5, 3.6 mM FC-14) with 300 mM NaCl and 20 mM imidazole, and a further ten column volumes of buffer B with 100 mM NaCl and 50 mM imidazole. Protein was eluted with four column volumes buffer B with 100 mM NaCl and 500 mM imidazole. Purity was assessed on Coomassie stained SDS-PAGE gels and Western blotting. Purification was completed with a final size exclusion chromatography (SEC) step. […]

Assay [2] concerns the target T2, Or10a. Put plainly: EIS sensor, Or10a nanodiscs on gold electrode (Example 4).
For assay [3], the target named is T2, Or10a. Put plainly: EIS sensor, Or10a liposomes on gold electrode, optimized conditions (Example 5).
Where [4] appears, read: real time current measurement mode.

Consider `CCC/C=C/C=O` [E2-hexenal], for which the “concentration to which the sensor demonstrates a response in real time” value on OR35a (OR35a nanodisc functionalized CNT FET) came out at 64 pM. Besides, at OR35a, the “real time source-drain current response” value was “immediate large decrease”. The compound further displayed a ΔI/I0 change on OR35a (at 64 pM, OR35a nanodiscs 1:10 dilution) of 10%. At OR35a (present study, Table 4), this compound showed an EC50 of about 0.3 nM and a Sensitivity limit of 0.001 pM. Further, at OR35a (setting [4]), the “concentration at which clear electronic response starts” value came out at 1 fM. At Or10a [1] (nanodiscs 1:100 dilution), the current response entry is reported as “no response”. For the same compound, at Or10a [2], the “EIS response to control ligand” value is listed as “do not respond”.
As to `CCCCCC(=O)OC` [methyl hexanoate], the “real time source-drain current response” value at OR35a is on record as “no clear response”. In addition, the “EIS response to control ligand” value on Or10a [3] was “do not respond”.
Turning to `COC(=O)c1ccccc1O` [methyl salicylate], the limit of detection result at Or10a [1] (nanodiscs 1:100 dilution) was “below 1 fM”. Besides, the current response entry at Or10a [1] (nanodiscs 1:100 dilution) is listed as “consistently large decreases”. Also, the “concentration at which clear electronic response starts” value at Or10a [1] (setting [4]) was found to be 1 fM. In addition, the LOD at Or10a [2] (EIS) worked out at 10 fM; at Or10a [3] (EIS), 1 pM.

For the origin of these results see patent US12044651B2, “Sensor device and methods” (SCENTIAN BIO LIMITED, priority 2016, dated 2024).
